Reference: patent US20160220582A1, “COMBINATION OF LUPEOL ACETATE AND CURCUMIN USED FOR THE TREATMENT OR PREVENTION OF ACTIVATED OSTEOCLAST PRECURSOR ASSOCIATED DISORDERS” (priority 2015, published 2016)

Assays:
[1] = system: collagen-induced arthritis (CIA) mice; assay: Micro-CT bone density of femur in CIA mice; type: in vivo, DBA/1J mice; details: day 32, 39 and 43
Experimental: Micro-CT images were acquired from the Tri-Modality FLEX Triumph™ Pre-Clinical Imaging System (Gamma MedicaIdeas; Northridge, Calif.). The ROI was analyzed visually in three different slices: transverse, coronal, and sagittal. Individual ROI was used to create 3D representations of the bones of interest. For each specific bone ROI, the total number of pixels and mean pixel intensity across all slices were used to measure bone volume and density.

NF-κB = assay: Ex vivo electrophoretic mobility shift assay (EMSA); type: in vivo, DBA/1J mice
Experimental: The LightShift Chemiluminescent EMSA kit (Pierce, Rockford, Ill., USA) was used in the analysis for NF-κB/DNA binding activity. Nuclear extracts were incubated with the biotin labeled DNA probes at room temperature for 20 minutes. The separated DNA/protein complexes from the free oligonucleotide on 10% polyacrylamide gel were transferred to a nylon membrane. The nylon membrane was immersed in ECL (Pierce, Rockford, Ill., USA) and reacted to emit cold light (luminescence), and then exposed to the film for the observation of NF-κB activity. Using IMAGE J software (National Institutes of Health), the obtained images were quantified to blackening degree; the blackening degree of the protein to be observed is divided by the value obtained in the control group to compare the differences of each group in the expression level of nuclear proteins.

rheumatoid arthritis = details: mice; high doses (100 mg/kg, 12 days) necessary; US 20120177754; cited from earlier work
[2] = system: inflammatory condition induced by carrageenan; details: mice; Lucetti et al. 2010; cited from earlier work
[3] = system: collagen-induced arthritis (CIA) mice; assay: Ex vivo Western blotting of leg proteins of CIA mice; type: in vivo, DBA/1J mice; details: day 32
Experimental: The mice were sacrificed by cervical dislocation on the 32nd day of the animal experiment. The whole leg of mouse was removed, and the leg tissue was ground by adding an appropriate amount of lysis buffer (tissue protein extraction reagent, T-PER, Pierce Protein Biology Products, IL, USA), centrifuged at 15,000 rpm for 20 minutes, and the supernatant is taken as the sample for each group.
Mice were sacrificed at the peak of arthritis (on day 32), the protein extraction was isolated from legs of each group.

[4] = system: collagen-induced arthritis (CIA) mice; assay: 18F-FDG PET of joints in CIA mice; type: in vivo, DBA/1J mice
Text: Apart from blood analysis, current clinical diagnosis will also use X-ray as an evaluation basis. Since X-ray image can only diagnose rheumatoid arthritis when the bone has been damaged severely at late stage, it could not be an effective evaluation tool. ^18F-FDG can be used as a tracer to observe and evaluate its accumulation during rheumatoid arthritis.
Repeated ^18F-FDG PET in vivo determination of disease severity in knee joints and paws on 20, 25, 32, 39 and 43 days after arthritis induction. Mice were anesthetized using 1-3% isoflurane and were intravenous injected with 0.5 mCi/100 μl (18.5 MBq) of ^18F-FDG 40 min before images acquisition. The emission scans were performed using an animal micro/PET scan (Tri-Modality FLEX Triumph™ Pre-Clinical Imaging System). All images were acquired for 40 min and reconstructed by software supplied by the manufacturer. The ROIs were selected, and the accumulation of ^18F-FDG of each ROI was further analyzed by Amide software.

[5] = system: collagen-induced arthritis (CIA) mice; assay: Histopathology of joints (H & E stain) in CIA mice; type: in vivo, DBA/1J mice; details: day 43
Text: To investigate the therapeutic efficacy of LA combined with curcumin on the histological damage in CIA mice, the mice were scarified on day 43 after arthritis induction. The joints of four limb of each mouse were excised and fixed with paraformaldehyde then embedded by paraffin and sectioned. Slides were stained with haematoxylin and eosin (H & E), and were observed under microscope.

[6] = Body weight tracking in CIA mice; type: in vivo
Experimental: Eight-week-old DBA/1J mice (purchased from Jackson lab, ME, USA and housed in the Animal center of National Yang Ming University under pathogen-free conditions according to the Institutional Animal Care and Committee guidelines) were used. 100 μl of arthritis-inducing adjuvant (prepared by mixing Complete Freund's Adjuvant (5 mg/ml heat-killed M. tuberculosis in incomplete Freund's Adjuvant) (Chondrex, WA, USA) with equal volume of bovine type II collagen (2 mg/ml solution in 0.05 M acetic acid) (Chondrex, WA, USA)) is injected into the dermis of tail (intra-dermal, i.d.) using a 30 G syringe; and a 50 μl second dose of same ingredients is injected in the same way at an interval of 21 days. The symptoms are produced at about six days after the second dose injection, with an induction rate of 100%. The CIA mice were established and treated with LA 25 mg/kg alone, LA 50 mg/kg alone, Cur 50 mg/kg alone and LA 25 mg/kg+Cur 50 mg/kg after second immunization once per day. Using animals treated with deionized distilled water (ddH2O) containing 0.1% dimethyl sulfoxide (DMSO, Sigma, USA) as the normal mice group. Signs of arthritis were monitored until Day 43.

RAW 264.7 cells = assay: MTT cell viability assay; details: RAW264.7, 24 h; LA 10-80 μM, Cur 2.5-10 μM, 10 μM Cur+10-80 μM LA
Experimental: RAW 264.7 cells (a mouse macrophage cell line) were treated with different concentrations of lupeol acetate (10, 20, 40, 80 μM), curcumin (2.5, 5, 7.5, 10 μM) and combination (10 μM Cur+10 μM LA, 10 μM Cur+20 μM LA, 10 μM Cur+40 μM LA, 10 μM Cur+80 μM LA) for 24 h.
5×10^4 RAW264.7 cells/well were seeded in 96-well culture dishes, and treated with directed concentration of lupeol acetate (LA), curcumin (Cur) and combination for 24 hours after the 24-hr attachment. After removing the culture medium, 100 μl of 0.5 mg/ml MTT solution was added, and the cells were incubated at 37° C. for 4 hours. The mitochondrial enzyme (succinate dehydrogenase, SDH) in living cells will react with tetrazolium bromide in the MTT solution and form formazan blue-purple crystals. The MTT solution was removed and 200 μl DMSO was added to dissolve the blue-purple crystal, and then the O.D. (optical density) value was read under wavelength of 570 nm with an ELISA reader (TECAN Sunrise, USA). The relative cell viability is calculated by comparing the absorbance value of drug treated group with that of the control group (setting the value of control group as 100%).

arthritis = details: mice; cited from earlier work
[7] = clinical application; cited from earlier work

Row | Compound | bone density of femur vs CIA mice [1] | activation of NF-κB (NF-κB; LA25 (25 mg/kg)) | activation of NF-κB (NF-κB; LA50 (50 mg/kg)) | inhibiting inflammation and treatment of rheumatoid arthritis (rheumatoid arthritis) | inflammatory condition induced by carrageenan [2] | arthritis-related proteins ([3]; LA25 (25 mg/kg)) | arthritis-related proteins ([3]; LA50 (50 mg/kg)) | 18F-FDG accumulation in knee and tarsal joint / leg swelling ([4]; 25 mg/kg alone) | histopathology of joints: immune cell infiltration and cartilage destruction ([5]; 25 mg/kg) | histopathology of joints: immune cell infiltration and cartilage destruction ([5]; 50 mg/kg) | tolerability / general toxicity ([6]; CIA mice, throughout the experimental period) | cytotoxic effects, cell viability (MTT) (RAW 264.7 cells) | occurrence of inflammation and progression of arthritis (arthritis) | 18F-FDG accumulation in knee and tarsal joint / leg swelling ([4]; 50 mg/kg alone) | bioavailability [7] | tolerability / general toxicity ([6]; mouse, in vivo)
1 | lupeol acetate [LA] | significantly higher | significantly suppressed | significantly suppressed | significant therapeutic effect | effectively mitigate | improvement | improvement | still have leg swelling on one side | moderate immune cell infiltration and cartilage destruction | no inflammation and cartilage destruction | well-tolerated | no cytotoxic effects | – | – | – | –
2 | COc1cc(/C=C/C(=O)CC(=O)/C=C/c2ccc(O)c(OC)c2)ccc1O [Cur, curcumin] | significantly higher | – | – | – | – | – | – | – | – | moderate immune cell infiltration and cartilage destruction | – | – | inhibit | still have leg swelling on one side | poor bioavailability | well-tolerated
